One experiment deals with T1, human topo IIα (Homo sapiens, UniProt P11388).
T1 construct: purchased Inspiralis (Norwich, UK)
Put plainly: competitive ATPase assay at different ATP concentrations. It counts as biochemical. As to the method: Then, we performed the competitive ATPase assay for compound 1, to investigate how our class of compounds affects the ATP hydrolysis in dependence of ATP concentration. Assay was performed at 8 different concentrations of ATP and compound 1. […] The assay was carried out in two parallels. […] In addition, we also calculated the IC50 values of compound 1 vs. different concentrations of the ATP.
Compound were analyzed using a linked ATPase assay in which the ADP produced by the hydrolysis of ATP leads to the conversion of NADH to NAD by a pyruvate kinase/lactate dehydrogenase mix. The disappearance of NADH was monitored at 340 nm. A mix of the assay buffer (5 µL of 10X buffer per assay: final conc. 20 mM Tris-HCl, 5 mM magnesium acetate, 125 mM potassium acetate, 2 mM DTT, pH 7.9), linear pBR322 (1.5 µL of 1mg/mL per assay), phosphoenol pyruvate (0.5 µL of 80 mM per assay), pyruvate kinase/lactate dehydrogenase mix (0.75 µL per assay), NADH (1 µL of 20 mM per assay), DMSO (1.5 µL per assay), and water (32.85 µL per assay) was made. 41.1 µL of this mixture was aliquoted into the wells of a 384-well microtiter plate. 0.5 µL of DMSO or the investigated compound were added to the wells and mixed. 5 µL of the dilution buffer or human topo IIα (200 nM stock giving the 12 nM final concentration) were then added and mixed. A pre-run was done before the run was started by adding 3.4 µL of the appropriate concentration of ATP and the OD340 monitored for up to 35 minutes. Assays were performed at 37 °C. Two negative controls (4 % DMSO and dilution buffer without enzyme) were run in the presence of 2 mM ATP. This assay was performed at 8 different concentrations of the ATP (0.025, 0.05, 0.075, 0.1, 0.25, 0.5, 0.75 and 1 mM). Assays were performed at 3.9, 31, 50, 75 and 100 µM final concentrations of the investigated compound 1. The final DMSO concentration in all the reactions was 4 % (v/v). Assay was performed in duplicate. The human topo competitive ATPase assay was performed in collaboration with Inspiralis (Norwich, UK).

In experiment [1] the target is T2, human topo IIα ATPase domain (Homo sapiens, UniProt P11388).
T2 construct: The ATPase fragment with 1-453 amino acid residues was purchase from Inspiralis; purchased Inspiralis
T2 sequence (P11388 1-453): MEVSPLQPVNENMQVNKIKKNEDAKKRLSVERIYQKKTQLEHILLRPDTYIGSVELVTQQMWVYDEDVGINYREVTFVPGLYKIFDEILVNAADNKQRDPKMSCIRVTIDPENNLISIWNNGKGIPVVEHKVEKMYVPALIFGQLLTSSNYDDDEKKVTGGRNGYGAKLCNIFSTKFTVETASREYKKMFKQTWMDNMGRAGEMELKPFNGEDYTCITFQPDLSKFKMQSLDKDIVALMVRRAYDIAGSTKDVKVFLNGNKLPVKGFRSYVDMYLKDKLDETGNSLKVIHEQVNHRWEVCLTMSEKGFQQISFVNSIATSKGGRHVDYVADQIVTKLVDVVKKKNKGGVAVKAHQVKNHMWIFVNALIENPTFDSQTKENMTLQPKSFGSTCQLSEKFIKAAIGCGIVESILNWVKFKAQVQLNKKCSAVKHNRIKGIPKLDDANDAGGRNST
Put plainly: microscale thermophoresis (MST) binding. To be noted: three independent runs; initial fluorescence; labelled protein 20 nM. The text has this:
Figure 2. […] The graph shown is representative of two independent experiments.
A general note: MST reads how a fluorescent partner responds to local heating, with and without ligand.

Experiment [2] concerns HepG2 cells. Description: cell cycle analysis by flow cytometry (Hoechst 33342). To be noted: 24h, mean ± SD of 3; for S phase, percent of HepG2 cells: listed as head printed "5" in Table 7. The class given is cell-based, human. How it is done: (§1) Figure 4. Cell cycle analysis, cell proliferation and induction of the DNA double stand breaks (DBS) by the selected substituted 4,5'-bithiazole compound 1. (A) Percent of HepG2 cells in certain phases of cell cycle after 24h treatment to compound 1 at 50 µM and 10 µM in comparison with the solvent control (0). […] (B) Percent of proliferative cells after 24h treatment to compound 1 at 50 µM and 10 µM determined with the Ki67 antibody. (C) Results of the analyses of the induction of the DNA double strand breaks by γ-H2AX assay. Distribution of the fluorescent signals of individual cells in the samples is shown. Data are presented as quantile box plots. The edges of the box represent the 25th and 75th percentiles, the median is a solid line through the box, and the bars represent 95% confidence intervals. In each sample, 10^4 events were recorded, and experiments were repeated three times independently. Significant difference between treated cells and the solvent control (0) is indicated by * p < 0.05, ** p < 0.01 and *** p < 0.001.
(§2) After the exposure floating and adherent cells were collected by trypsinization. For the fixation the cells were centrifuged at 800 rpm, 4°C for 5 min, washed twice with ice cold PBS, resuspended in 0.5 mL cold PBS and ethanol (1.5 mL) was added drop wise into the cell pellet, while vortexing. The cells were fixed at 4°C overnight and stored at -20°C until analysis. Fixed cells were centrifuged at 1200 rpm for 10 min, washed with ice cold 1× PBS and labelled with Anti-H2AX pS139 antibodies (50-fold diluted) for DNA DBS analysis, Ki67 antibodies (50-fold diluted) for proliferation analysis and Hoechst 33342 dye for cell cycle analysis according to the manufacturer's protocol. Flow cytometric analysis was carried out on a MACSQuant Analyzer 10 (Miltenyi Biotech, Germany). FITC intensity, corresponding to proliferation marker Ki67+, was detected in the FITC-A channel and cell cycle analysis was detected in VioBlueA channel. APC intensity, corresponding to DSBs, was detected in the APC-A channel. Unspecific binding was checked with rea-FITC and rea-APC antibodies (Miltenyi Biotec, Germany). In each sample, 10 000 events were recorded. Independent experiments were repeated three times. […] For further analysis the raw data was exported from MACSQuantify software and it was converted to. fcs format and further to the .csv format. For the yH2AX foci analysis the statistical significance between treated groups and the vehicle control was determined with a linear mixed-effects model. Calculations were done with the statistical program R [49] and its packages reshape and nlme.

Experiment [3] concerns HepG2 cells. Description: γ-H2AX assay, induction of DNA double strand breaks. The class given is cell-based, human. The following applies: 24h, result in words. How it is done:
as §1, with “The edges of the box represent the 25th and 75th percentiles, the median is a solid line through the box, and the bars represent 95% confidence intervals.” left out, “Significant difference between treated cells and the solvent control (0) is indicated by * p < 0.05, ** p < 0.01 and *** p < 0.001.” left out
After the exposure floating and adherent cells were collected by trypsinization. […] FITC intensity, corresponding to proliferation marker Ki67+, was detected in the FITC-A channel and cell cycle analysis was detected in VioBlueA channel. APC intensity, corresponding to DSBs, was detected in the APC-A channel. […] In each sample, 10 000 events were recorded. […] For the yH2AX foci analysis the statistical significance between treated groups and the vehicle control was determined with a linear mixed-effects model. […]

Experiment [4] relates to HepG2 cells. Put plainly: cell proliferation, Ki-67 marker, flow cytometry. It counts as cell-based, human. To be noted: 24h. How it is done: as §2, with “For” for “For further analysis the raw data was exported from MACSQuantify software and it was converted to. fcs format and further to the .csv format. For”, “Calculations were done with the statistical program R [49] and its packages reshape and nlme.” left out

Broadly, the IC50 is the concentration at which inhibition is half-maximal. As a reminder, the Kd is the constant that tells how readily two partners part at equilibrium. Low values mean tighter binding, high ones weaker binding.

Values joined by “and” are separate entries in the source; they are usually repeats but may differ in a detail not shown here. Equal values may be shown once.

T1 sequence (P11388 whole entry): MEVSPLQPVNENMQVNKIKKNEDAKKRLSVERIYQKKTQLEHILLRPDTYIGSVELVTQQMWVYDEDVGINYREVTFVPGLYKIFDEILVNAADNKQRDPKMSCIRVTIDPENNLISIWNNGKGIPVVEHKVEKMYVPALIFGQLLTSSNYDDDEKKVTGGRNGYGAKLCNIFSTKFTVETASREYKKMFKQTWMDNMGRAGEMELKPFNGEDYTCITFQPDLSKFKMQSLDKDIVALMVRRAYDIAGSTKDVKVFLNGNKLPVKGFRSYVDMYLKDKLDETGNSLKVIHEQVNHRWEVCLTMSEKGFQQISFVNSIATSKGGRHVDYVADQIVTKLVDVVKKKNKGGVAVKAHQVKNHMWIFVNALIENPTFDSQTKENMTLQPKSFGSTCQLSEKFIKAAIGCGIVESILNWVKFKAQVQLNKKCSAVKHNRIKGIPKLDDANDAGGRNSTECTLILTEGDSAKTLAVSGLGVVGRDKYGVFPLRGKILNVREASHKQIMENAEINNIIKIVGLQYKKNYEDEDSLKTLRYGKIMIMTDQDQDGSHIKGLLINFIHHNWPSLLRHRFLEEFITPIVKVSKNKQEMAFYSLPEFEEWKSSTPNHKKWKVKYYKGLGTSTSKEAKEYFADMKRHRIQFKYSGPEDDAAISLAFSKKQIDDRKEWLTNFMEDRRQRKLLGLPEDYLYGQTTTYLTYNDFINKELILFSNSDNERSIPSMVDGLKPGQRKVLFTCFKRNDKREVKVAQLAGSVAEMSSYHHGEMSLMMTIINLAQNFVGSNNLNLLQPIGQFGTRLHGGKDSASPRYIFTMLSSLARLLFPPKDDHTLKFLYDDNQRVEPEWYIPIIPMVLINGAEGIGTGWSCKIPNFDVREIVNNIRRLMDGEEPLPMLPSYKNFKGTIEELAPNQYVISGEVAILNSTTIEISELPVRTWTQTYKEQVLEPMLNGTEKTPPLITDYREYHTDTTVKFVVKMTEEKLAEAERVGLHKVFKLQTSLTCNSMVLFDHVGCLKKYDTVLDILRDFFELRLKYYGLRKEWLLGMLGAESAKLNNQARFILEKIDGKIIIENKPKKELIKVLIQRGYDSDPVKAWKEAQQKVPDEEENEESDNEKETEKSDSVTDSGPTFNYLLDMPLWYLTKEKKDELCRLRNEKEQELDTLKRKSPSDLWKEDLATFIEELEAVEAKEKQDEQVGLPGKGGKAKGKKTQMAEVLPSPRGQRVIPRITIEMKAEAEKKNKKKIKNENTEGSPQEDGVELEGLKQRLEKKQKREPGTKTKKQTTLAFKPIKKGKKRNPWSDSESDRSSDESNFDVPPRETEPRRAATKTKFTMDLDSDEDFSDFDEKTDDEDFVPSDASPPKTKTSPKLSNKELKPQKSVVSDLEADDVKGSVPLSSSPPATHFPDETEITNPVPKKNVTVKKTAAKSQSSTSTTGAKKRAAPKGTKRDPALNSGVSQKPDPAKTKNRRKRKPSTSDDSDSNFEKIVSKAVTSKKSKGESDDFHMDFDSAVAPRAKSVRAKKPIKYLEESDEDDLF

On to `Cc1nc(N)sc1-c1csc(Nc2ccc(C(F)(F)F)cc2)n1` [Compound 1, 4'-methyl-N2-(4-(trifluoromethyl)phenyl)-[4,5'-bithiazole]-2,2'-diamine], for which the IC50 on human topo IIα (c(ATP) 0.025) stood at 3.8 µM; on human topo IIα (c(ATP) 0.05), 8.8 µM; at human topo IIα (c(ATP) 0.075) it was 14.8 µM; on human topo IIα (c(ATP) 0.1), 9.4 µM; at human topo IIα (c(ATP) 0.25) it was 18.3 µM; on human topo IIα (c(ATP) 0.5), 15.2 µM. The IC50 on human topo IIα (c(ATP) 0.75) was 17.8 µM; at human topo IIα (c(ATP) 1) it was 21.6 µM; at human topo IIα (c(ATP) 2) it was 25.4 µM. This compound also gave a dissociation constant Kd in experiment [1] of 50.6 ± 7.6 µM. The results for the “>G1, G2<, percent of HepG2 cells” value in the experiment on HepG2 cells [2] (10 µM) and in the experiment with HepG2 cells [2] (50 µM) were 1.2 ± 1.0% and 1.4 ± 0.6%, respectively. Besides, the “G1 phase, percent of HepG2 cells” value in the experiment on HepG2 cells [2] (10 µM) is 56.5% and 56.5 ± 6.4%; with HepG2 cells [2] (50 µM) it was 60.6% and 60.6 ± 7.0^∗ %. Moreover, the results for the “G2 phase, percent of HepG2 cells” value in the experiment with HepG2 cells [2] (10 µM) and in the experiment on HepG2 cells [2] (50 µM) were 24.8 ± 4.5% and 26.2 ± 2.5%, respectively. Besides, the “S phase, percent of HepG2 cells” value with HepG2 cells [2] (10 µM) is 17.5% and 17.5 ± 1.1^∗∗∗ %; in the experiment with HepG2 cells [2] (50 µM) it was 17.5% and 11.8 ± 4.5^∗∗ %. Also, the “DNA DSB formation” value with HepG2 cells [3] (10 µM) and in the experiment on HepG2 cells [3] (50 µM) was “no increase” throughout. For the same compound, the “Percent of cell proliferation (Ki-67 positive)” value in the experiment with HepG2 cells [4] (10 µM) worked out at 88.6%; with HepG2 cells [4] (50 µM), 81.3%.

(Values after patent publication EP3811940B1, “SUBSTITUTED 4,5'-BITHIAZOLES AS INHIBITORS OF THE HUMAN DNA TOPOISOMERASE II” (Kemijski Institut, priority 2019, dated 2021).)
